From patent US8865750B2, “Small molecule inhibitors of RGS proteins” (The Regents of The University of Michigan, priority 2011, dated 2014)
“Also recorded” adds a separate entry of the source. Like-named read-outs stand apart in the source and are kept apart here.

Tests used:
RGS8 = RGS8 (Homo sapiens (Human), UniProt P57771); test: FCPIA: Gαo binding to RGS8
From the text: (§1) FCPIA Dose Response and Reversibility Experiments:

Solubility experiments = format: physicochemical; conditions: water; aqueous
Protocol: Compounds were diluted to 100 mM in DMSO and the further diluted to 500 μM in H2O, vortexed and centrifuged for 10 minutes at 13,000×g at ambient temperature.

RGS19 = RGS19 (Homo sapiens (Human), UniProt P49795); test: FCPIA: Gαo binding to RGS19; conditions: Table 7
Protocol: as §1
FCPIA was performed as previously described using chemically biotinylated RGS proteins and AlexaFluor-532 labeled Gα0. (Roman et al., J Biomol Screen, 2009; Blazer, L. L., et al., Mol Pharmacol).
RGS/Gα binding studies: The binding of biotinylated RGS proteins to fluorescently labeled Gαo was measured by Flow Cytometry Protein Interaction Assay (FCPIA) method previously described (Roman et al., (2009) J Biomol Screen.; Blazer et al., (2010) Curr Protoc Cytom Chapter 13, Unit 13 11 11-15; Roman et al., (2007) Mol Pharmacol 71, 169-175) as were the measures of compound reversibility.

Gα0 = Gα0 (Homo sapiens (Human), UniProt P09471); test: Intrinsic GTP hydrolysis by Gαo (single turnover); format: biochemical
Protocol: (§2) Single Turnover GTPase Measurements:
(§3) Compounds were tested for the ability to inhibit the RGS4 and RGS8-stimulated increase in GTP hydrolysis by Gα0 as described previously (Roman, D. L., et al., Mol Pharmacol, 2007. 71(1): p. 169-75; Roof, R. A., et al., Chem Biol Drug Des, 2006. 67(4): p. 266-74).
(§4) Single-turnover GAP assay: Experiments were performed as previously described using purified his6-tagged Gαo (Blazer et al., Biochemistry 50, 3181-3192; Roof et al., (2008) Chem Biol Drug Des 72, 111-119).

HEK293 cells = test: Calcium mobilization induced by compound alone; format: cell-based;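 as to Calcium transient (% 50014): percent of response to 10 µM reference CCG-50014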
In short: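 HEK-293 Flp-In TREx cells stably expressing muscarinic M3 receptor, with human RGS4 induced by 1 μg/mL doxycycline for 24-48 h, loaded with Fluo-4 for 30 min at 37° C. Compound added without carbachol; fluorescence followed for 120 s, quantified as area under curve or peak intensity.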

M3 muscarinic receptor = test: Carbachol-induced Ca2+ response, M3 cells without RGS4 dependence; format: cell-based; conditions: for effect on carbachol-induced Ca2+ response (RGS-independent): 10 μM (FIG. 20) or as stated
Protocol: Calcium Mobilization Experiments:
(§5) A stable cell line was developed based upon the HEK-293 Flp-In TREx cell line (Invitrogen, Carlsbad, Calif.) that stably express the muscarinic M3 receptor and have human RGS4 expression under doxycycline control. Cells were maintained in DMEM supplemented with 10% fetal bovine serum and Penicillin (100 units/ml)-Streptomycin (100 μg/ml) under 5% CO2 at 37° C. For experiments, cells were split into 96-well black, clear bottom, poly-D-lysine coated microtiter plates (Nunc, Cat. #152037) at a density of 20,000 cells/well in DMEM containing 10% fetal bovine serum and Penicillin (100 units/ml), Streptomycin (100 μg/ml). RGS4 expression was induced by supplementing the medium with 1 μg/mL doxycycline for 24-48 hours before experimentation. Cells were loaded with Fluo-4 No Wash dye in buffer for 30 minutes at 37° C. Compounds and/or carbachol were added to the wells and the fluorescence intensity was measured using a FlexStation (Molecular Devices, Sunnyvale, Calif.) plate reader. Data analysis was performed by calculating the area under the curve or maximal fluorescence intensity from a 120 second kinetic measurement.
as §5, with “Calcium signaling transients: A” for “A”, “units/ml)-Streptomycin” for “units/ml), Streptomycin”

RGS4 = RGS4 (Homo sapiens (Human), UniProt P49798); test: Single turnover GTPase (GAP) assay, RGS4; format: biochemical
Protocol: as §2, §3
Compounds were tested for the ability to inhibit the RGS4 and RGS8-stimulated increase in GTP hydrolysis by Gα0 as previously described (Roman, D. L., et al., Mol Pharmacol, 2007. 71(1): p. 169-75; Roof, R. A., et al., Chem Biol Drug Des, 2006. 67(4): p. 266-74).
as §4

Tail suspension test = format: in vivo, mice
From the text: This Example describes antidepressant activity of compounds of embodiments of the present invention. Antidepressant-like effects of CCG 203769: The tail suspension test in mice is a model of learned helplessness and is used as an assay for antidepressant medications. In this test antidepressant drugs (such as SSRIs) decrease the time the animals spend immobile by increasing escape-like behaviors.

Sequence of RGS8 (P57771 other isoform, or with tags, fused parts or gaps): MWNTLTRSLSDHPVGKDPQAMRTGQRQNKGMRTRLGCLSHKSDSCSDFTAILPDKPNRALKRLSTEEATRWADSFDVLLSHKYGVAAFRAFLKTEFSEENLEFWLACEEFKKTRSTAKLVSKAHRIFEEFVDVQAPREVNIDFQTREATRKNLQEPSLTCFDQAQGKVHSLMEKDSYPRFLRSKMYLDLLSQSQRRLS
Sequence of RGS4 (P49798 52-205, species assumed): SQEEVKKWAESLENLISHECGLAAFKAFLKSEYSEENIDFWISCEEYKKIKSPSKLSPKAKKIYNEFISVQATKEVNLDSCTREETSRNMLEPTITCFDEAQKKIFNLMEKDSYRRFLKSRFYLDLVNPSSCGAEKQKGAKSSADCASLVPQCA
Sequence of Gα0 (P09471 whole entry): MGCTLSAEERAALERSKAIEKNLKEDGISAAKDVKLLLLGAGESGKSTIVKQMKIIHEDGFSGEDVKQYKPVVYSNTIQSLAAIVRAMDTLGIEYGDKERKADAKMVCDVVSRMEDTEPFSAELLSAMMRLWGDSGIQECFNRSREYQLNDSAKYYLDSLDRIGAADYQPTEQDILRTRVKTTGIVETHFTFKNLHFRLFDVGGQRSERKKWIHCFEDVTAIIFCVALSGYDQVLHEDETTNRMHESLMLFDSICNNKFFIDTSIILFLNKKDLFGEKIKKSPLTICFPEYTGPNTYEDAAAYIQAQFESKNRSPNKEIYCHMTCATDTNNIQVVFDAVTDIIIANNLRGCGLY
Sequence of RGS19 (P49795 whole entry, species assumed): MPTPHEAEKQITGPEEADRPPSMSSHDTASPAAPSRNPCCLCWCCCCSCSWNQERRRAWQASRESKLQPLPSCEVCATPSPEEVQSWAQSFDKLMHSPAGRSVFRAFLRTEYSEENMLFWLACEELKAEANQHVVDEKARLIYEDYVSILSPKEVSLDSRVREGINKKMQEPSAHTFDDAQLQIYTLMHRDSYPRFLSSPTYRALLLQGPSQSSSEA

SMILES: CCCCn1c(=O)sn(CC)c1=O [CCG-203769, 2-ethyl-4-butyl-1,2,4-thiadiazolidine-3,5-dione]
- RGS8 Hill Slope (RGS8; Table 3): −0.56
- IC50 (RGS8; Table 6, FCPIA, read-out: RGS8 IC50): 83.5 µM
- IC50 (RGS8; Table 7, read-out: IC50 (μM), RGS8): 79 µM
- solubility (Solubility experiments): > 5 mM
- IC50 (RGS19): 0.14 µM
- basal GTPase activity of the G protein (Gα0): without inhibiting the basal GTPase activity
- induction of calcium transient by compound alone (HEK293 cells; 10 μM, HEK293 cells): no ability to induce calcium mobilization
- Emax at 10 µM (HEK293 cells; Homo sapiens, HEK293, read-out: Calcium transient (% 50014)): 2.7%
- concentration above which carbachol Ca2+ transient is inhibited (M3 muscarinic receptor): > 3 µM
- effect on carbachol-induced Ca2+ response (RGS-independent) (M3 muscarinic receptor): without affecting M3-mediated calcium signal; also recorded: does not directly affect the carbachol stimulation
- effect on carbachol-induced Ca2+ response (RGS-independent) (M3 muscarinic receptor; listed as 11b): no effect
- inhibition of GAP activity of RGS4 (RGS4): potently inhibits the functional effect of RGS4
- effect on immobility in RGS4 knockout mice (Tail suspension test; 10 mg/kg): lost
- immobility time (Tail suspension test; IP, significant effect at 10 mg/kg): decreases their immobility time in a dose-dependent manner
